Experimental data reported in US12728126B2, “Compounds for inhibiting LY6K and methods of using same” (The Henry M. Jackson Foundation for the Advancement of …, priority 2020, dated 2026).

Experiments:
IFNγ/Stat1 signaling = assay: Western blot of IFNγ induced phosphorylation of Stat1; type: cell-based; conditions: serum starved, IFN γ (100 ng/mL), 2 μM, 30 minutes
Description: (§1) Cells were serum starved overnight and then treated with TGF 13 (10 ng/mL) or IFN γ (100 ng/mL) in the presence of 2 μM NSC243928 or NSC11150 for 30 minutes followed by protein analysis using western blot. […] NSC243928 inhibited the TGFβ1 induced phosphorylation of Smad2/3; NSC11150 had no effect on TGFβ1/Smad2/3 signaling. NSC11150 inhibited IFNγ induced phosphorylation of Stat1; NSC243928 had no effect on IFNγ/Stat1 signaling.

PD-L1 [1] = assay: PD-L1 protein expression in control cells; type: cell-based; conditions: 2 μM
TGFβ1/Smad2/3 signaling = assay: Western blot of TGFβ1 induced phosphorylation of Smad2/3; type: cell-based; conditions: serum starved, TGFβ1 (10 ng/mL), 2 μM, 30 minutes
Description: as §1

MDA-MB-231 cells = assay: Cell-Titer-Blue assay, control vs LY6K knockdown MDA-MB-231 cells; type: cell-based
Description: (§2) For cell death assay, cells were plated in a black walled 96-well plate and treated with the indicated concentration of drugs for 24 h. Cell-Titer-Blue reagent was added, and the Cytation 5 microplate reader (BioTek, Winooski, VT, USA) was used to measure fluorescence intensity (excitation 560(10) nm, emission 590(20) nm) according to manufacturer's instructions.
To confirm the effect of NSC243928 in LY6K-expressing cells, it was observed the parental control and sh2 LY6K knockdown in MDA-MB-231 cells, a triple negative breast cancer cell line. These cells were generated as previously described. To test the effect of NSC243928 on cell growth, the cells were seeded into 96-well plates and treated with 2 μM of the compound for 24 h. A CTB assay was then performed according to manufacturer's instructions to determine the cell growth.
as §1

PD-L1 [2] = assay: PD-L1 measured in live cells after IFN γ treatment; type: cell-based; conditions: serum starved, 100 ng/ml IFN γ, 2 μM drug
Description: Cells were serum starved and treated with 100 ng/ml IFN γ with 2 μM drugs. PD-L1 was measured in live cells (using a zombie live-dead stain). The graph was plotted from three experiments. A 7.9-fold decrease in the number of cells with high PD-L1 expression was observed.

[3] = tested on: 4T1 mouse mammary tumor cells; assay: 4T1 syngeneic mammary tumor model, tumor growth in vivo; set-up: species or system Balb/c mice; conditions: 4T1 model
Description: A syngeneic mammary tumor model is used to show the effect of Ly6K small molecule inhibitors on tumor growth in vivo. 4T1 mouse model is an orthotopic allograft model (also called the spontaneous tumor metastasis model). In the 4T1 mouse model, 4T1 mouse mammary tumor cells were injected into the second mammary gland of syngenetic Balb/c mice, and the spontaneous metastasis to the lung were analyzed with a colonogenic assay. 4T1 mice bearing 50-70 mm^3 tumors were treated with NSC243928 or NSC11150 every second day at a dosage of 5 mg/kg in saline. Each group had 10 mice. Tumor measurements were performed using a Vernier caliper. The tumor volumes were calculated using equation ½*length*(width*width).

[4] = tested on: Hs-578-T cells, BT-549 cells, and OVCAR-8 cells; assay: In vitro cell growth inhibition in other cancer cell types (FIG. 2); type: cell-based
Description: as §2
Cell culture and viability assay are as described herein. […] The inhibitory effect of a crystalline form of Compound I on cell growth in vitro is further illustrated in other cancer cells types, including Hs-578-T cells, BT-549 cells, and OVCAR-8 cells (FIG. 2).

Row | Structure (SMILES) | IFNγ induced phosphorylation of Stat1 (IFNγ/Stat1 signaling) | PD-L1 protein expression (PD-L1 [1]) | TGFβ1 induced phosphorylation of Smad2/3 (TGFβ1/Smad2/3 signaling) | cell death / cell growth in control MDA-MB-231 cells (MDA-MB-231 cells; 2 μM, 24 h, control cells) | cell death in Ly6K knockdown cells (MDA-MB-231 cells; 100 μM, Ly6K knockdown cells (data not shown)) | cell death in control cells (MDA-MB-231 cells; 100 μM, control cells (data not shown)) | inhibitory effect on cells with high expression of PD-L1 (PD-L1 [2]) | decrease in the number of cells with high PD-L1 expression (PD-L1 [2]; live cells, three experiments) | day following treatment at which inhibition on tumor growth is statistically significant ([3]; 5 mg/kg every second day, P<0.005) | inhibitory effect on tumor growth in vivo ([3]; 5 mg/kg in saline every second day) | inhibitory effect on cell growth at different concentrations (comparison) ([4]; crystalline form compared, different concentrations) | IC50 ([4]; range over the cell types of FIG. 2)
1 | Oc1ccc(Cc2ccc(Cl)cc2)c(O)c1 [Compound II, 4-(4-chlorobenzyl)benzene-1,3-diol] | inhibited | inhibition of PD-L1 expression | had no effect | did not show significant effect on cell death | induced cell death | induced cell death | showed inhibitory effect | 7.9 fold | 11 days | significant inhibitory effects |  | 
2 | CCS(=O)(=O)Nc1ccc(Nc2c3ccccc3nc3ccccc23)c(OC)c1 [crystalline form of Compound I, N-(4-(acridin-9-ylamino)-3-methoxyphenyl)ethanesulfonamide] |  |  |  |  |  |  |  |  |  |  | same or better inhibitory effect | 4.17 to 7.65 µM
